Results on 30 compounds are retold here after patent US10023528B2, “Branched 3-phenylpropionic acid derivatives and their use” (BAYER INTELLECTUAL PROPERTY GMBH, priority 2011, dated 2018).

Test [1] deals with recombinant guanylate cyclase reporter cell line (CHO reporter cell). Briefly: Action at a recombinant guanylate cyclase reporter cell line. The test is classed as cell-based. The following applies: CHO reporter cell in vitro; read-out: MEC (minimum effective concentration), sGC-activating activity in the CHO reporter cell. On the procedure: The cellular action of the compounds according to the invention is determined at a recombinant guanylate cyclase reporter cell line, as described in F. Wunder et al., Anal. Biochem. 339, 104-112 (2005).

The target in test [2] is soluble guanylate cyclase (sGC) (Rattus norvegicus (Rat), UniProt P20595). Briefly: Stimulation of sGC enzyme activity (PPi detection, luciferase). The format is biochemical. The following applies: sGC enzyme in vitro; for EC50: read-out: EC50 (concentration at 50% of maximum efficacy), activating action at the sGC enzyme. On the procedure: Soluble guanylate cyclase (sGC) converts on stimulation GTP into cGMP and pyrophosphate (PPi). PPi is detected with the aid of the assay described below. The signal produced in the assay increases as the reaction progresses and serves as a measure of the sGC enzyme activity under the given stimulation.
Chain of soluble guanylate cyclase (sGC) (P20595 whole entry): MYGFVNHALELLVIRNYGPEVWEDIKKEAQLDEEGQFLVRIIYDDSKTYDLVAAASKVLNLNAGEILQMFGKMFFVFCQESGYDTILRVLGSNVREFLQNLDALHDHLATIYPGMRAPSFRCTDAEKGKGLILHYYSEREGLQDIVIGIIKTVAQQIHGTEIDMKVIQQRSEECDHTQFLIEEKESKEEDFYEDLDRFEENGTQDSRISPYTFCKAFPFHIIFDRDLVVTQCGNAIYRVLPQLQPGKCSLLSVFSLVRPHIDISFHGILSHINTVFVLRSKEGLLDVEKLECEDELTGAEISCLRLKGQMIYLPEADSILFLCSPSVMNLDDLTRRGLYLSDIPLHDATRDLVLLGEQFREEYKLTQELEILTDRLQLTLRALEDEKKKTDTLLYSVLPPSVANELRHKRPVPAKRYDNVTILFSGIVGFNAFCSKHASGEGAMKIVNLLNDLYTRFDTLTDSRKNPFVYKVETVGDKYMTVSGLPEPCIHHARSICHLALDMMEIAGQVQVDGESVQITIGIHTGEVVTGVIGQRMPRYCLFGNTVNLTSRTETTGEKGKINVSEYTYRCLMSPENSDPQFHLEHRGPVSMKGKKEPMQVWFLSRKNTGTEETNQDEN
Chain of soluble guanylate cyclase (sGC) (P19686 whole entry partner): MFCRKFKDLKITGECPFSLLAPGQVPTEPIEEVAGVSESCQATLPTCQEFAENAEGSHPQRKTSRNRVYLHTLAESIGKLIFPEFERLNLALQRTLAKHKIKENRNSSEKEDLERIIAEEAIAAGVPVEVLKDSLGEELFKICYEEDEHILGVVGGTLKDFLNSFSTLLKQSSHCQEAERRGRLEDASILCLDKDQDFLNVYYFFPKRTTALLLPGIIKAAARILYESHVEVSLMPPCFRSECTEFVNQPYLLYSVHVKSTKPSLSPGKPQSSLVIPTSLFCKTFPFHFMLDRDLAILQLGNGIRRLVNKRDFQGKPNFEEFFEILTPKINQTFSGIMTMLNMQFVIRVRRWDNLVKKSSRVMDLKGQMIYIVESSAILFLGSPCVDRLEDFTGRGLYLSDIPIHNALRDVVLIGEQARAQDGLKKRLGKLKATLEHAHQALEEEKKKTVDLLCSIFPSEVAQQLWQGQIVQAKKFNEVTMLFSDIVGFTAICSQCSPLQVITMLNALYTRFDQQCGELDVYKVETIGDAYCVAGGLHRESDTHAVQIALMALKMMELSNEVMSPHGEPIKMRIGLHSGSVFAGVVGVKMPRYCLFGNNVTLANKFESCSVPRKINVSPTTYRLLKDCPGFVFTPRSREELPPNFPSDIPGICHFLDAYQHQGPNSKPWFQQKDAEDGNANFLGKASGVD
To carry out the assay, 29 μl of enzyme solution [0-10 nM soluble guanylate cyclase (prepared according to Hönicka et al, J. Mol. Med. 77, 14-23 (1999)) in 50 mM TEA, 2 mM MgC2, 0.1% BSA (fraction V), 0.005% Brij®, pH 7.5] are initially introduced into a microplate, and 1 μl of the substance to be tested (as a serially diluted solution in DMSO) is added. The mixture is incubated at room temperature for 10 min. Then 20 μl of detection mix [1.2 nM Firefly Luciferase (Photinus pyralis luciferase, Promega), 29 μM dehydroluciferin (prepared according to Bitler & McElroy, Arch. Biochem. Biophys. 72, 358 (1957)), 122 μM luciferin (Promega), 153 μM ATP (Sigma) and 0.4 mM DTT (Sigma) in 50 mM TEA, 2 mM MgCl2, 0.1% BSA (fraction V), 0.005% Brij®, pH 7.5] are added. The enzyme reaction is started by adding 20 μl of substrate solution [1.25 mM guanosine 5′-triphosphate (Sigma) in 50 mM TEA, 2 mM MgC2, 0.1% BSA (fraction V), 0.005% Brij®, pH 7.5] and measured continuously in a luminometer. The extent of the stimulation by the substance to be tested can be determined relative to the signal of the unstimulated reaction.
The activation of haem-free guanylate cyclase is examined by addition of 25 μM of 1H-1,2,4-oxadiazolo[4,3-a]quinoxalin-1-one (ODQ) to the enzyme solution and subsequent incubation for 30 minutes and compared to the stimulation of the native enzyme.

Test [3] has as its system saphenous artery rings. Briefly: Vasorelaxant effect in vitro (phenylephrine-contracted saphenous artery rings). The format is cell-based. As to conditions: Oryctolagus cuniculus; rabbit saphenous artery rings, phenylephrine-induced contraction. How it is done: Rabbits are anaesthetized and sacrificed by intravenous injection of thiopental sodium (about 50 mg/kg) and exsanguinated. The saphenous artery is removed and divided into rings 3 mm wide. The rings are mounted singly on in each case a pair of triangular hooks open at the end and made of 0.3 mm-thick special wire (Remanium®). Each ring is placed under an initial tension in 5 ml organ baths with Krebs-Henseleit solution which is at 37° C., is gassed with carbogen and has the following composition: NaCl 119 mM; KCl 4.8 mM; CaCl2×2 H2O 1 mM; MgSO4×7 H2O 1.4 mM; KH2PO4 1.2 mM; NaHCO3 25 mM; glucose 10 mM; bovine serum albumin 0.001%. The force of contraction is detected with Statham UC2 cells, amplified and digitized via A/D converters (DAS-1802 HC, Keithley Instruments, Munich) and recorded in parallel on chart recorders. Contractions are induced by addition of phenylephrine.
After several (generally 4) control cycles, the substance to be investigated is added in each further run in increasing dosage, and the level of the contraction achieved under the influence of the test substance is compared with the level of the contraction reached in the last preceding run. The concentration necessary to reduce the contraction reached in the preceding control by 50% is calculated from this (IC50). The standard application volume is 5 μl. The proportion of DMSO in the bath solution corresponds to 0.1%.

The term IC50 denotes the concentration that gives 50% inhibition. Read a low IC50 as higher potency. In the case of `CC(C)C(C)(CC(=O)O)c1ccc(Cl)c(NC(=O)[C@H](c2ccc(Cl)cc2)[C@@H](C)C(F)(F)F)c1` (single isomer, unassigned) [Example 3], in test [1], the minimal effective concentration was 0.0003 µM. Further, in test [2], the “MEC (minimum effective concentration), activating action at the sGC enzyme” value (shortened to “MEC (minimum effective concentration)”) is 1 nM and the EC50 was determined as 37 nM. In addition, the half-maximal inhibitory concentration (IC50) in test [3] was 801 nM.

Take `CC(C)C(C)(CC(=O)O)c1ccc(Cl)c(NC(=O)[C@H](c2ccc(Cl)cc2)[C@@H](C)C(F)(F)F)c1` (single isomer, unassigned) [Example 4]: in test [1], the minimal effective concentration is 0.003 µM. In test [2], the “MEC (minimum effective concentration)” value is recorded as 2.4 nM and the EC50 is 110 nM.

Consider `C[C@H]([C@H](C(=O)Nc1cc(C(C)(CC(=O)O)C2CCC2)ccc1Cl)c1ccc(Cl)cc1)C(F)(F)F` (single isomer, unassigned) [Example 5], for which the minimal effective concentration in test [1] stood at 0.0003 µM. Moreover, in test [2], the “MEC (minimum effective concentration)” value was determined as 0.3 nM and the EC50 was found to be 5.2 nM. The like results for `C[C@H]([C@H](C(=O)Nc1cc(C(C)(CC(=O)O)C2CCC2)ccc1Cl)c1ccc(Cl)cc1)C(F)(F)F` (single isomer, unassigned) [Example 6] were, in that order, 0.001 µM, 1.1 nM and 56 nM. `C[C@H]([C@H](C(=O)Nc1cc(C(CC(=O)O)C2(C)CC2)ccc1Cl)c1ccc(Cl)cc1)C(F)(F)F` (single isomer, unassigned) [Example 26]: the minimal effective concentration in test [1] came out at 0.01 µM.

For the compound `C[C@H]([C@H](C(=O)Nc1cc(C(CC(=O)O)CC2CC2)ccc1Cl)c1ccc(Cl)cc1)C(F)(F)F` (single isomer, unassigned) [Example 35], the minimal effective concentration in test [1] was determined as 0.0003 µM. In addition, in test [2], the “MEC (minimum effective concentration)” value was found to be 1 nM and the EC50 was determined as 11 nM. As for `C[C@H]([C@H](C(=O)Nc1cc(C(CC(=O)O)CC2CC2)ccc1Cl)c1ccc(Cl)cc1)C(F)(F)F` (single isomer, unassigned) [Example 36], in test [1], the minimal effective concentration came out at 0.003 µM. On to `CC(C)C(CC(=O)O)c1ccc(Cl)c(NC(=O)[C@H](c2ccc(Cl)cc2)[C@@H](C)C(F)(F)F)c1` (single isomer, unassigned; (+)) [Example 1], for which the minimal effective concentration in test [1] is 0.003 µM. Also, in test [2], the “MEC (minimum effective concentration)” value is recorded as 1 nM and the EC50 came to 22 nM. In the case of `CC(C)C(CC(=O)O)c1ccc(Cl)c(NC(=O)[C@H](c2ccc(Cl)cc2)[C@@H](C)C(F)(F)F)c1` (single isomer, unassigned; (+)) [Example 2], the minimal effective concentration in test [1] was 0.0065 µM. Further, in test [2], the “MEC (minimum effective concentration)” value turned out to be 4 nM and the EC50 came out at 89 nM. The like results for `C[C@H]([C@H](C(=O)Nc1cc(C(CC(=O)O)C2CCC2)ccc1Cl)c1ccc(Cl)cc1)C(F)(F)F` (single isomer, unassigned; (+)) [Example 33] were, in that order, 0.001 µM, 0.4 nM and 11 nM. As to `C[C@H]([C@H](C(=O)Nc1cc(C(CC(=O)O)C2CCC2)ccc1Cl)c1ccc(Cl)cc1)C(F)(F)F` (single isomer, unassigned; (+)) [Example 34], in test [1], the minimal effective concentration amounted to 0.01 µM. The same measure, in the same setting: in the case of `C[C@H]([C@H](C(=O)Nc1cc(C(C)(CC(=O)O)C2CC2)ccc1Cl)c1ccc(Cl)cc1)C(F)(F)F` (stereo partly shown) [Example 7] it was 0.3 µM; in that of `CCc1ccc([C@@H](C(=O)Nc2cc(C(CC(=O)O)C(C)C)ccc2Cl)[C@@H](C)C(F)(F)F)cc1` (stereo partly shown) [Example 8], 0.001 µM. Consider `CC(C)C(CC(=O)O)c1ccc(Cl)c(NC(=O)[C@H](c2ccc(Cl)c(F)c2)[C@@H](C)C(F)(F)F)c1` (stereo partly shown) [Example 9], for which the minimal effective concentration in test [1] came to 0.001 µM. With `CC(C)C(CC(=O)O)c1ccc(Cl)c(NC(=O)[C@H](c2ccc(F)cc2)[C@@H](C)C(F)(F)F)c1` (stereo partly shown) [Example 11], the minimal effective concentration in test [1] turned out to be 0.003 µM. For `CC(C)C(CC(=O)O)c1ccc(Cl)c(NC(=O)C(c2ccc(CC(F)(F)F)cc2)C(C)C(F)(F)F)c1` (stereo not shown) [Example 12], the minimal effective concentration in test [1] turned out to be 0.001 µM. For the same compound, in test [2], the “MEC (minimum effective concentration)” value stood at 1.1 nM and the EC50 came to 17 nM. Consider `CC(C)C(CC(=O)O)c1ccc(Cl)c(NC(=O)[C@H](c2ccc(C3CC3(F)F)cc2)[C@@H](C)C(F)(F)F)c1` (stereo partly shown) [Example 13], for which the minimal effective concentration in test [1] was 0.0003 µM. In addition, in test [2], the “MEC (minimum effective concentration)” value is listed as 0.5 nM and the EC50 stood at 14 nM.

For `COc1cc([C@@H](C(=O)Nc2cc(C(CC(=O)O)C(C)C)ccc2Cl)[C@@H](C)C(F)(F)F)ccc1Cl` (stereo partly shown) [Example 15], the minimal effective concentration in test [1] was determined as 0.003 µM. For the compound `Cc1ccc([C@@H](C(=O)Nc2cc(C(CC(=O)O)C(C)C)ccc2Cl)[C@@H](C)C(F)(F)F)cc1` (stereo partly shown) [Example 16], the minimal effective concentration in test [1] came out at 0.003 µM. In test [3], this compound registered an IC50 of 767 nM. Take `Cc1cc([C@@H](C(=O)Nc2cc(C(CC(=O)O)C(C)C)ccc2Cl)[C@@H](C)C(F)(F)F)ccc1Cl` (stereo partly shown) [Example 17]: in test [1], the minimal effective concentration came out at 0.001 µM. As to `CC(C)C(CC(=O)O)c1ccc(Cl)c(NC(=O)C(c2ccc(Cl)cc2)C2CCC(F)(F)C2)c1` (stereo not shown) [Example 18], the minimal effective concentration in test [1] was 0.3 µM. The same measure, in the same setting: in the case of `CC(C)C(CC(=O)O)c1ccc(Cl)c(NC(=O)C(c2ccc(Cl)cc2)C2CCC(F)(F)C2)c1` (stereo not shown) [Example 19] it was 0.03 µM; in that of `CC(C)C(CC(=O)O)c1ccc(Cl)c(NC(=O)C(c2ccc(Cl)cc2)C2CCC(F)(F)C2)c1` (stereo not shown) [Example 20], 1 µM. Still for that read-out and setting: in the case of `CC(C)C(CC(=O)O)c1ccc(Cl)c(NC(=O)C(c2ccc(Cl)cc2)C2CCC(F)(F)C2)c1` (stereo not shown) [Example 21] it was 0.01 µM; in that of `C[C@H]([C@H](C(=O)Nc1cc(C(CC(=O)O)C2CC2)ccc1Cl)c1ccc(Cl)cc1)C(F)(F)F` (stereo partly shown) [Example 23], 0.003 µM. Take `COC(C)(C)C(CC(=O)O)c1ccc(Cl)c(NC(=O)[C@H](c2ccc(Cl)cc2)[C@@H](C)C(F)(F)F)c1` (stereo partly shown) [Example 25]: the minimal effective concentration in test [1] stood at 0.01 µM. In test [2], the “MEC (minimum effective concentration)” value turned out to be 5.1 nM and the EC50 is 220 nM. For `C[C@H]([C@H](C(=O)Nc1cc(C(CC(=O)O)C2(F)CC2)ccc1Cl)c1ccc(Cl)cc1)C(F)(F)F` (stereo partly shown) [Example 27], in that order: 0.003 µM, 1.7 nM and 68 nM.

Consider `C[C@H]([C@H](C(=O)Nc1cc(C(CC(=O)O)C2CC(F)(F)C2)ccc1Cl)c1ccc(Cl)cc1)C(F)(F)F` (stereo partly shown) [Example 28], for which the minimal effective concentration in test [1] was determined as 0.03 µM.

`CC(C(=O)O)C(c1ccc(Cl)c(NC(=O)C(c2ccc(Cl)cc2)[C@@H](C)C(F)(F)F)c1)C1CC1` (stereo partly shown) [Example 30]: the minimal effective concentration in test [1] was found to be 0.01 µM. In addition, in test [2], the “MEC (minimum effective concentration)” value is 1.7 nM and the EC50 came out at 640 nM. Take `C[C@H](C(C(=O)Nc1cc(C(CC(=O)O)C2CC2(F)F)ccc1Cl)c1ccc(Cl)cc1)C(F)(F)F` (stereo partly drawn) [Example 31, 3-(4-Chloro-3-{[(3R)-2-(4-chlorophenyl)-4,4,4-trifluoro-3-methylbutanoyl]amino}phenyl)-3-(2,2-difluorocyclopropyl)propanoic acid]: the minimal effective concentration in test [1] came out at 0.003 µM.
